Laboratory results as given in patent US12427144B2, “Compounds and methods for the targeted degradation of androgen receptor” (Arvinas Operations, Inc., priority 2019, dated 2025).

Legend:
androgen receptor = molecular target: T1, androgen receptor (Homo sapiens, UniProt P10275); assay: AR ELISA assay (PathScan AR Sandwich ELISA), VCaP cells; assay type: cell-based; details: drug treatment 5 hours
T1 construct: endogenous in cells; host or cells: VCaP
T1 sequence (P10275 1-920): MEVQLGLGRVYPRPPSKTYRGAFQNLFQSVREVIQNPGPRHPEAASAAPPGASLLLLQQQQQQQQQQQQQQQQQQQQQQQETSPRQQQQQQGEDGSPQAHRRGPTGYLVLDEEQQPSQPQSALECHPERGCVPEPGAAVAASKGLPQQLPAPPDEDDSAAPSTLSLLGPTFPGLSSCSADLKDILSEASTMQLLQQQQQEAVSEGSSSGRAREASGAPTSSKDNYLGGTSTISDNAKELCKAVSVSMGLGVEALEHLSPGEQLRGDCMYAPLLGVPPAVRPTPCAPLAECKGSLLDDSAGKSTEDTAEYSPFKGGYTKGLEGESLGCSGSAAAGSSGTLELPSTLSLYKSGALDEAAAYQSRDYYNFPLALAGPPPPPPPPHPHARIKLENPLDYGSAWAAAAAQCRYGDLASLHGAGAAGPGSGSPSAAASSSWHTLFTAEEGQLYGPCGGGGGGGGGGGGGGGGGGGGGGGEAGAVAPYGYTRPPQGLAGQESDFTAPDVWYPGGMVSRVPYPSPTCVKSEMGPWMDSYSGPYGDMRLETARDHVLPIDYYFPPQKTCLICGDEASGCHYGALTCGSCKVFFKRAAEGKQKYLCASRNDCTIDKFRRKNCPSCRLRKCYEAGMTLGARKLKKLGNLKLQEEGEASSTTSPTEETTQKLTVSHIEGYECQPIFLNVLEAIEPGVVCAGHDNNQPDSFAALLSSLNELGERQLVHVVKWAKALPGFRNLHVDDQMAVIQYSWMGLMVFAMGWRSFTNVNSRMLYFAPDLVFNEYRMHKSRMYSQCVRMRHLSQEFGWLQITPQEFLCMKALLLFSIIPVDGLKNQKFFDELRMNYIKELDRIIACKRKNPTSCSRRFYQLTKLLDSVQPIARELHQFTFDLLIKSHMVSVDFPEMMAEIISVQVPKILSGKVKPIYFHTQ
Description: Compounds were evaluated in this assay in LNCaP and/or VCaP cells utilizing similar protocols. The protocols used with VCaP cells are described below. The androgen receptor ELISA assay was performed using PathScan AR Sandwich ELISA (Cell Signaling Catalog #12850) according to the following assay steps:
VCaP cells were seeded at 40,000 cells/well at a volume of 100 μL/well in VCaP assay medium [Phenol red free RPMI (Gibco Cat #11835-030); 5% Charcoal Stripped (Dextran treated) FBS (Omega Scientific, Cat #FB-04); 1% penstrep (Life Technologies, Gibco Cat #: 10378-016)] in Corning 3904 plates. The cells were incubated for a minimum of 3 days. Cells were dosed with PROTACs diluted in 0.01% DMSO and the drug treatment was allowed for 5 hours.
AR ELISA (Cell Signaling) was performed as follows. 1× Cell Signaling Cell lysis buffer was made (Catalogue #9803; comes with the kit). Media from the treated wells is aspirated, and 100 μL 1× cell lysis buffer/well is added. The cells were placed on a shaker for 10 minutes at 4° C. Twenty microliters of lysate was transferred to 100 μl of Diluent in ELISA plate (0.15 μg/ml-[…]). The lysate-diluent mixture was shaken for 30 minutes at 37° C. Allow mouse AR antibody, anti-mouse antibody, TMB, and STOP solution to come to room temperature. The 1×ELISA buffer included in kit was made and loaded in the reservoir. Media from the plates was discarded, the ELISA plate tapped hard on paper towel, and washed 4×200 μl ELISA wash buffer using a plate washer.
One-hundred (100) […] of mouse AR detection Ab was added; the plates were covered and shaken at 37° C. for 1 hour; media was discarded from the plates, the plates were tapped on a paper towel, washed 4× with 200 μL ELISA wash buffer with a plate washer.
One-hundred (100) […] of anti-mouse—HRP conjugated Ab (comes with the kit) was added; the plates were covered and shaken at 37° C. for 30 minutes; the TMB reagent was allowed to come to room temperature; the media was discard from the plate, the plates were tapped on paper towel, washed 4× with 200 μL of ELISA wash buffer; the plates were tapped the plates on paper towel. One-hundred (100) L of TMB was added and the plates shaken for 2 minutes—while watching for color development. One-hundred (100) L Stop solution was added when light blue color developed. Plates were shaken and read at 450 nm.
Progression of prostate cancer in patients treated with anti-androgen therapy usually involves one of several mechanisms of enhanced Androgen Receptor (AR) signaling, including increased intratumoral androgen synthesis, increased AR expression and AR mutations. PROTACs (PROteolysis TArgeting Chimera), which use bi-functional molecules that simultaneously bind a target of choice and an E3 ligase, cause ubiquitination via induced proximity and degradation of the targeted, pathological protein. As opposed to traditional target inhibition, which is a competitive process, degradation is a progressive process. As such, it is less susceptible to increases in endogenous ligand, target expression, or mutations in the target. Thus, this technology appears to be ideal for addressing the mechanisms of AR resistance in patients with prostate cancer. Data was analyzed and plotted using GraphPad Prism software.

Androgen Receptor (AR) = molecular target: T2, Androgen Receptor (AR) (Homo sapiens, UniProt P10275); assay: AR immunofluorescence staining, high content imager, VCaP cells; assay type: cell-based; details: for DC50: AR degradation by immunofluorescence; for Dmax: maximal AR degradation
T2 construct: endogenous in cells; host or cells: VCaP
T2 sequence (P10275 1-920): T1 sequence (P10275 1-920)
Outline: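 VCaP cells treated with compound, fixed in 4% PFA (8% 2× solution added directly for low-adherence lines), permeabilised with 0.1% Triton X-100 and blocked. Stained overnight at 4° C with anti-AR antibody, then FITC anti-rabbit secondary plus phalloidin and DAPI/Hoechst. Read by high-content imaging.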

| DC50 (androgen receptor) [nM] | Dmax (androgen receptor) [%] | DC50 (Androgen Receptor (AR)) [nM] | Dmax (Androgen Receptor (AR)) [%] | SMILES |
| --- | --- | --- | --- | --- |
| ≥ 100 | < 50 |  |  | CC(C)N(CC1CCN(c2cnc(C(=O)N[C@H]3C(C)(C)[C@H](Oc4ccc(C#N)c(Cl)c4)C3(C)C)cn2)CC1)[C@H]1C[C@H](Oc2cccc(C(=O)NC3CCC(=O)NC3=O)c2)C1 (stereo partly drawn) [Compound 9, N-((1R,3R)-3-(3-chloro-4-cyanophenoxy)-2,2,4,4-tetramethylcyclobutyl)-5-(4-((((1R,3R)-3-(3-((2,6-dioxopiperidin-3-yl)carbamoyl)phenoxy)cyclobutyl)(isopropyl)amino)methyl)piperidin-1-yl)pyrazine-2-carboxamide] |
| < 1 | 50 to 70 |  |  | Cc1cc(O[C@H]2C(C)(C)[C@H](NC(=O)c3ccc(N4CCC(CN5CCN(c6ccc(F)c(C(=O)NC7CCC(=O)NC7=O)c6)CC5)CC4)cc3)C2(C)C)cc(C)c1C#N (stereo partly drawn) [Compound 6, 5-(4-((1-(4-(((1R,3R)-3-(4-cyano-3,5-dimethylphenoxy)-2,2,4,4-tetramethylcyclobutyl)carbamoyl)phenyl)piperidin-4-yl)methyl)piperazin-1-yl)-N-(2,6-dioxopiperidin-3-yl)-2-fluorobenzamide] |
| < 1 | ≥ 70 |  |  | CC1(C)[C@H](NC(=O)c2ccc(N3CCC(CN4CCN(c5ccc(C(=O)NC6CCC(=O)NC6=O)cc5)CC4)CC3)nn2)C(C)(C)[C@H]1Oc1ccc(C#N)c(Cl)c1 (stereo partly shown) [Compound 3, N-[3-(3-chloro-4-cyanophenoxy)-2,2,4,4-tetramethylcyclobutyl]-6-[4-[(4-[4-[(2,6-dioxopiperidin-3-yl)carbamoyl]phenyl]piperazin-1-yl)methyl]piperidin-1-yl]pyridazine-3-carboxamide] |
| 1 to 10 | < 50 |  |  | Cc1cc(O[C@H]2C(C)(C)[C@H](NC(=O)c3cnc(N4CCC(CN(C(C)C)[C@H]5C[C@H](Oc6cccc(C(=O)NC7CCC(=O)NC7=O)c6)C5)CC4)cn3)C2(C)C)cc(C)c1C#N (stereo partly shown) [Compound 15, 5-(4-[[(propan-2-yl)[(1r,3r)-3-[3-[(2,6-dioxopiperidin-3-yl)carbamoyl]phenoxy]cyclobutyl]amino]methyl]piperidin-1-yl)-N-[(1r,3r)-3-(4-cyano-3,5-dimethylphenoxy)-2,2,4,4-tetramethylcyclobutyl]pyrazine-2-carboxamide] |
| < 1 | < 50 |  |  | CC1(C)[C@H](NC(=O)c2ccc(N3CCC(CN4CCN(c5cccc(C(=O)NC6CCC(=O)NC6=O)c5)CC4)CC3)cc2)C(C)(C)[C@H]1Oc1ccc(C#N)c(Cl)c1 (stereo partly drawn) [Compound 4, 3-(4-((1-(4-(((1R,3R)-3-(3-chloro-4-cyanophenoxy)-2,2,4,4-tetramethylcyclobutyl)carbamoyl)phenyl)piperidin-4-yl)methyl)piperazin-1-yl)-N-(2,6-dioxopiperidin-3-yl)benzamide] |
| < 1 | < 50 |  |  | Cc1cc(O[C@H]2C(C)(C)[C@H](NC(=O)c3ccc(N4CCC(CN5CCN(c6cncc(C(=O)NC7CCC(=O)NC7=O)c6)CC5)CC4)cc3)C2(C)C)cc(C)c1C#N (stereo partly shown) [Compound 5, N-(2,6-dioxopiperidin-3-yl)-5-(4-[[1-(4-[[(1r,3r)-3-(4-cyano-3,5-dimethylphenoxy)-2,2,4,4-tetramethylcyclobutyl]carbamoyl]phenyl)piperidin-4-yl]methyl]piperazin-1-yl)pyridine-3-carboxamide] |
| < 1 | < 50 |  |  | CC1(C)[C@H](NC(=O)c2ccc(N3CCC(CN4CCN(c5ccc(F)c(C(=O)NC6CCC(=O)NC6=O)c5)CC4)CC3)cc2)C(C)(C)[C@H]1Oc1ccc(C#N)c(Cl)c1 (stereo partly drawn) [Compound 8, 5-(4-((1-(4-(((1R,3R)-3-(3-chloro-4-cyanophenoxy)-2,2,4,4-tetramethylcyclobutyl)carbamoyl)phenyl)piperidin-4-yl)methyl)piperazin-1-yl)-N-(2,6-dioxopiperidin-3-yl)-2-fluorobenzamide] |
|  |  | < 1 | 50 to 70 | Cc1cc(O[C@H]2C(C)(C)[C@H](NC(=O)c3ccc(N4CC5(C4)CN([C@H]4C[C@H](Oc6ccc(C(=O)N[C@H]7CCC(=O)NC7=O)c(F)c6)C4)CCO5)cc3)C2(C)C)cc(C)c1C#N [Compound 63, N-[(1r,3r)-3-(4-cyano-3,5-dimethylphenoxy)-2,2,4,4-tetramethylcyclobutyl]-4-{8-[(1r,3r)-3-(4-{[(3S)-2,6-dioxopiperidin-3-yl]carbamoyl}-3-fluorophenoxy)cyclobutyl]-5-oxa-2,8-diazaspiro[3.5]nonan-2-yl}benzamide] |
|  |  | < 1 | ≥ 70 | Cc1cc(O[C@H]2C(C)(C)[C@H](NC(=O)c3ccc(N4CCO[C@@H](CN5CCN(c6ccc(C(=O)N[C@H]7CCC(=O)NC7=O)c(F)c6)CC5)C4)cc3)C2(C)C)cc(C)c1C#N [Compound 52, N-[(3S)-2,6-dioxopiperidin-3-yl]-2-fluoro-4-(4-{[(2S)-4-(4-{[(1r,3r)-3-(4-cyano-3,5-dimethylphenoxy)-2,2,4,4-tetramethylcyclobutyl]carbamoyl}phenyl)morpholin-2-yl]methyl}piperazin-1-yl)benzamide] |
|  |  | < 1 | ≥ 70 | Cc1cc(O[C@H]2C(C)(C)[C@H](NC(=O)c3ccc(N4CCO[C@H](CN5CCN(c6ccc(C(=O)N[C@H]7CCC(=O)NC7=O)c(F)c6)CC5)C4)cc3)C2(C)C)cc(C)c1C#N [Compound 48, N-[(3S)-2,6-dioxopiperidin-3-yl]-2-fluoro-4-(4-{[(2R)-4-(4-{[(1r,3r)-3-(4-cyano-3,5-dimethylphenoxy)-2,2,4,4-tetramethylcyclobutyl]carbamoyl}phenyl)morpholin-2-yl]methyl}piperazin-1-yl)benzamide] |

| SMILES | DC50 (androgen receptor) [nM] | Dmax (androgen receptor) [%] | DC50 (Androgen Receptor (AR)) [nM] | Dmax (Androgen Receptor (AR)) [%] |
| --- | --- | --- | --- | --- |
| COc1cc(O[C@H]2C(C)(C)[C@H](NC(=O)c3ccc(N4CCC(O[C@H]5C[C@H](Oc6ccc(C(=O)NC7CCC(=O)NC7=O)c(OC)c6)C5)CC4)cc3)C2(C)C)ccc1C#N (stereo partly shown) [Compound 54, N-[(1r,3r)-3-(4-cyano-3-methoxyphenoxy)-2,2,4,4-tetramethylcyclobutyl]-4-{4-[(1r,3r)-3-{4-[(2,6-dioxopiperidin-3-yl)carbamoyl]-3-methoxyphenoxy}cyclobutoxy]piperidin-1-yl}benzamide] |  |  | < 1 | ≥ 70 |
